For the assay, the system named is diploid maize plant. Put plainly: Multibud induction in vitro, embryo axis method (Example 8). In kind it is in vivo. As to the method: Seeds of a diploid maize plant were surface sterilized comprising immersion using standard methods of the art and then germinated in vitro in growth media. One of the resulting seedlings was dissected from its seed two days after germination (embryo axis method). The dissected axis was then subjected to a multibud induction treatment comprising transfer to fresh multibud induction media containing cytokinin in the form of 10 mg/L BAP. After seven days in the multibud bud induction media, the treated seedlings were transferred back to a hormone-free regeneration media. […] These multibuds were dissected from the mother plant and transferred to rooting media comprising IBA and IAA. After approximately one week, the multibud-derived plants were transplanted into 10 inch pots and allowed to grow in a greenhouse until it was clear that each autonomously-growing multibud-derived shoot had formed ears and tassels that nicked. Each ear was then pollinated from the tassel growing in the same pot and then all plants were allowed to grow in greenhouse conditions until seed set.

With `c1ccc(CNc2ncnc3nc[nH]c23)cc1` [BAP, 6-Benzylaminopurine, N-(Phenylmethyl)-7H-pruin-6-amine], the “seed borne by ears of multibud-derived plants” value (10 mg/L BAP) was “dozens of seed each”. Moreover, where the note is “10 mg/L BAP for seven days, after approximately twenty days”, the multibud formation result is listed as “induced multibuds could be seen growing from the nodal regions of the stem”.

The record behind these values is US11917959B2, “Multi-ear system to enhance monocot plant yield” (Monsanto Technology LLC, priority 2015, dated 2024).
